Values joined by “and” are separate entries in the source; they are usually repeats but may differ in a detail not shown here. Identical values can stand only once.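 Cells were grown in 96-well plates and exposed to each compound for 48 hours at five concentrations; endpoints were interpolated linearly between bracketing concentrations, or set to the highest concentration if not reached. GI50 marks 50% less growth. At the TGI there is no net growth.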
Assays:
Assay in all cases: NCI tumour cell line growth inhibition, 48 h
[1] = system: UACC-62 melanoma
[2] = system: OVCAR-8 ovarian
[3] = system: SNB-75 CNS
[4] = system: SN12C renal
[5] = system: IGROV1 ovarian
[6] = system: SK-MEL-5 melanoma
[7] = system: K-562 leukemia
[8] = system: SR leukemia
[9] = system: SK-OV-3 ovarian
[10] = system: RPMI-8226 leukemia

Row | SMILES | TGI [1] | TGI [2] | TGI [3] [µM] | TGI [4] | TGI [5] | TGI [6] | TGI [7] | TGI [8] [µM] | TGI [9] | TGI [10] | GI50 [2] [µM] | GI50 [10] | GI50 [4] [µM] | GI50 [9] [µM] | GI50 [1] [µM] | GI50 [3] [µM] | GI50 [5] [µM] | GI50 [6] [µM] | GI50 [7] [µM]
1 | COc1cc(C(C)c2cc3c(cc2OCCNC(=O)COc2cc4c(cc2C(C)c2cc(OC)c(OC)c(OC)c2)OCO4)OCO3)cc(OC)c1OC (configuration not stated) | > 100 µM | > 100 µM | > 100 | > 100 µM | > 100 µM | > 100 µM | > 100 µM | > 100 | – | – | – | – | – | – | – | – | – | – | –
2 | CC1=NOC(=O)/C1=C/c1ccc([N+](=O)[O-])cc1 | > 100 µM | > 100 µM | > 100 | > 100 µM | > 100 µM | > 100 µM | > 100 µM | > 100 | > 100 µM | – | – | – | – | – | – | – | – | – | –
3 | C/C(CC(=O)Nc1ccccc1C)=N/NS(=O)(=O)c1ccc(C)cc1 | > 100 µM | > 100 µM | > 100 | – | > 100 µM | > 100 µM | > 100 µM | – | > 100 µM | > 100 µM | – | – | – | – | – | – | – | – | –
4 | CO[C@H]1C[C@](C)(O)Cc2cc3c(c(O)c21)C(=O)c1c(O)cc2c(c1C3=O)O[C@@H]1O[C@@]2(C)[C@H](O)[C@@H](N(C)C)[C@@H]1O | 2.98 µM and 2.83 µM | 3.36 µM and 4.97 µM | – | 2.57 µM and 3.48 µM | 9.16 µM and 18.7 µM | 3.17 µM and 10.2 µM | 6.65 µM and 15.7 µM | 0.647 | 2.45 µM and 3.67 µM | 3.66 µM and 10.9 µM | 1.07 | 0.667 µM and 0.494 µM | 0.56 | 0.749 | – | – | – | – | –
5 | O=C1C=Cc2c1ccc1ccccc21 | 70.9 µM | 73.6 µM | > 100 | 35.7 µM | > 100 µM | 71 µM | > 100 µM | – | > 100 µM | 21.9 µM | 25.3 | 4.2 µM | 6.55 | 30.2 | 9.66 | 35.4 | 25.5 | 21.1 | 28.7
6 | Cc1cc(C)c(C(=O)O)c(SSc2cc(C)cc(C)c2C(=O)O)c1 | > 100 µM | > 100 µM | – | > 100 µM | – | > 100 µM | > 100 µM | > 100 | > 100 µM | – | – | – | – | – | – | – | – | – | –
7 | COc1cc(NS(C)(=O)=O)ccc1NCc1c2ccccc2nc2ccccc12 | > 100 µM | 99.1 µM | > 100 | > 100 µM | > 100 µM | – | > 100 µM | 62.9 | > 100 µM | 71.1 µM | – | – | – | – | – | – | – | – | –
8 | ClCc1ccccc1Cn1cnc2c(Cl)ncnc21 | 6.66 µM | 5.21 µM | 11.1 | 8.72 µM | – | 2.88 µM | 5.13 µM | – | 15.9 µM | 40.6 µM | 2.22 | 14.1 µM | 3.37 | 4.19 | 3.28 | 2.86 | – | 1.4 | 1.2
9 | NC(=O)c1cccc(OCC(O)CO)c1 (configuration not stated) | > 100 µM | > 100 µM | > 100 | > 100 µM | > 100 µM | > 100 µM | > 100 µM | > 100 | > 100 µM | – | – | – | – | – | – | – | – | – | –
10 | COc1ccc2oc(-c3ccc(OC)c(OC)c3OC)cc(=O)c2c1 | > 100 µM | – | > 100 | > 100 µM | > 100 µM | – | > 100 µM | – | > 100 µM | 43 µM | – | – | – | – | – | – | – | – | –
11 | CC1(C)OC(=O)C(C#N)=C1C[n+]1ccccc1 | – | > 10 µM | > 10 | > 10 µM | > 10 µM | > 10 µM | > 10 µM | > 10 | > 10 µM | > 10 µM | – | – | – | – | – | – | – | – | –
12 | N#CC(C#N)=Cc1ccc(CP(=O)(O)O)cc1 | > 100 µM | > 100 µM | – | > 100 µM | > 100 µM | > 100 µM | > 100 µM | – | > 100 µM | > 100 µM | – | – | – | – | – | – | – | – | –
13 | COc1cc(OC)c(OC)cc1/C=C/c1cnnc2ccccc12 | > 10 µM | > 10 µM | > 10 | > 10 µM | > 10 µM | > 10 µM | > 10 µM | – | > 10 µM | > 10 µM | – | – | – | – | – | – | – | – | –
14 | CCCCc1c2cnccc2c(CCCC)c2c1[nH]c1ccccc12 | 23.7 µM | 31.1 µM | 23.6 | 62.4 µM | 30.3 µM | – | 19.9 µM | – | 42.2 µM | 17.6 µM | – | – | – | – | – | – | – | – | –
15 | Cc1ccc(NC(=O)/C(Cc2cc(=O)oc3cc(O)ccc23)=N\NC(C)(C)C)cc1C | > 100 µM | > 100 µM | – | > 100 µM | – | > 100 µM | > 100 µM | > 100 | > 100 µM | > 100 µM | – | – | – | – | – | – | – | – | –
16 | COc1cc(C(=O)O[C@H](C(=O)NCCN(C)CCNC(=O)[C@@H](OC(=O)c2cc(OC)cc3c(C)cccc23)[C@]2(C)CO2)[C@]2(C)CO2)c2cccc(C)c2c1 | 0.338 µM | < 0.0324 µM | 1.02 | 0.3 µM | – | 0.178 µM | 6.85 µM | – | 3.6 µM | 5.85 µM | < 0.01 | 0.246 µM | < 0.0308 | 0.575 | 0.154 | 0.111 | < 0.0425 | 0.0173 | < 0.0389
17 | CN(C)CCCC1(c2ccc(F)cc2)OCc2cc(-c3cc4ccccc4s3)ccc21 (configuration not stated) | 3.24 µM | 3.25 µM | 2.58 | 2.94 µM | 2.46 µM | 3.05 µM | 3.3 µM | – | 3.04 µM | – | 1.72 | – | 1.57 | 1.66 | 1.79 | 1.24 | 1.14 | 1.69 | 1.68
18 | COc1ccc2c(c1OC)C(C(Cl)(Cl)Cl)N1CCc3cc4c(cc3C1=C2)OCO4 (configuration not stated) | 30.5 µM | > 100 µM | > 100 | > 100 µM | 98.2 µM | 15.4 µM | – | – | 85.9 µM | 11.3 µM | – | – | – | – | – | – | – | – | –
19 | COc1cc2c(cc1OC)C1Cc3ccc(OC)c(OC)c3C[N+]1([O-])CC2 (configuration not stated) | – | > 100 µM | > 100 | > 100 µM | – | > 100 µM | > 100 µM | – | – | > 100 µM | – | – | – | – | – | – | – | – | –
20 | Cc1ccc(S(=O)(=O)c2ccc(C)cc2[N+](=O)[O-])cc1 | > 100 µM | – | > 100 | > 100 µM | > 100 µM | 76.8 µM | > 100 µM | > 100 | > 100 µM | > 100 µM | – | – | – | – | – | – | – | – | –

From PubChem BioAssay (NCI)
